{"source": "PubChem BioAssay (NCI)", "experiment_in_all_cases": "DTP human tumour cell line panel, 48 h", "key": {"[1]": {"test_system": "SW-620 colon"}, "[2]": {"test_system": "UACC-257 melanoma"}, "[3]": {"test_system": "SN12C renal"}, "[4]": {"test_system": "NCI-H226 lung"}, "[5]": {"test_system": "MCF7 breast"}, "[6]": {"test_system": "KM12 colon"}, "[7]": {"test_system": "SF-268 CNS"}, "[8]": {"test_system": "OVCAR-5 ovarian"}, "[9]": {"test_system": "HL-60(TB) leukemia"}, "[10]": {"test_system": "MDA-MB-231 breast"}, "[11]": {"test_system": "BT-549 breast"}, "[12]": {"test_system": "NCI-H23 lung"}, "[13]": {"test_system": "EKVX NSCLC"}, "[14]": {"test_system": "HCC-2998 colon"}, "[15]": {"test_system": "IGROV1 ovarian"}, "[16]": {"test_system": "U251 CNS"}, "[17]": {"test_system": "M14 melanoma"}, "[18]": {"test_system": "HOP-92 NSCLC"}, "[19]": {"test_system": "RPMI-8226 leukemia"}, "[20]": {"test_system": "HCT-15 colon"}, "[21]": {"test_system": "LOX IMVI melanoma"}, "[22]": {"test_system": "A549 NSCLC"}, "[23]": {"test_system": "SK-MEL-5 melanoma"}, "[24]": {"test_system": "SK-MEL-28 melanoma"}, "[25]": {"test_system": "TK-10 renal"}, "[26]": {"test_system": "UACC-62 melanoma"}, "[27]": {"test_system": "COLO 205 colon"}, "[28]": {"test_system": "PC-3 prostate"}, "[29]": {"test_system": "HCT-116 colon"}}, "note": "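All cell lines were grown in 96-well plates and treated with compound for 48 hours. GI50: concentration for 50% inhibition of growth. The concentration for full growth arrest is given as TGI.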", "data": [{"smiles": "Fc1ccc(-c2nn3ccccc3c2-c2ccncc2)cc1", "values": [{"measurement": "GI50", "setting": "[1]", "result": "> 25", "unit": "µM"}, {"measurement": "TGI", "setting": "[1]", "result": "> 25", "unit": "µM"}, {"measurement": "GI50", "setting": "[2]", "result": "> 25", "unit": "µM"}, {"measurement": "TGI", "setting": "[2]", "result": "> 25", "unit": "µM"}, {"measurement": "GI50", "setting": "[3]", "result": "> 25", "unit": "µM"}, {"measurement": "TGI", "setting": "[3]", "result": "> 25", "unit": "µM"}, {"measurement": "GI50", "setting": "[4]", "result": "> 25", "unit": "µM"}, {"measurement": "TGI", "setting": "[4]", "result": "> 25", "unit": "µM"}, {"measurement": "GI50", "setting": "[5]", "result": "> 23.1", "unit": "µM"}, {"measurement": "TGI", "setting": "[5]", "result": "> 25", "unit": "µM"}, {"measurement": "GI50", "setting": "[6]", "result": "> 25", "unit": "µM"}, {"measurement": "TGI", "setting": "[6]", "result": "> 25", "unit": "µM"}, {"measurement": "GI50", "setting": "[7]", "result": "> 25", "unit": "µM"}, {"measurement": "TGI", "setting": "[7]", "result": "> 25", "unit": "µM"}, {"measurement": "GI50", "setting": "[8]", "result": "> 25", "unit": "µM"}, {"measurement": "TGI", "setting": "[8]", "result": "> 25", "unit": "µM"}, {"measurement": "GI50", "setting": "[9]", "result": "> 25", "unit": "µM"}, {"measurement": "TGI", "setting": "[9]", "result": "> 25", "unit": "µM"}, {"measurement": "GI50", "setting": "[10]", "result": "> 25", "unit": "µM"}, {"measurement": "TGI", "setting": "[10]", "result": "> 25", "unit": "µM"}, {"measurement": "GI50", "setting": "[11]", "result": "> 25", "unit": "µM"}, {"measurement": "TGI", "setting": "[11]", "result": "> 25", "unit": "µM"}, {"measurement": "GI50", "setting": "[12]", "result": "> 25", "unit": "µM"}, {"measurement": "TGI", "setting": "[12]", "result": "> 25", "unit": "µM"}, {"measurement": "GI50", "setting": "[13]", "result": "> 20.2", "unit": "µM"}, {"measurement": "TGI", "setting": "[13]", "result": "> 25", "unit": "µM"}, {"measurement": "GI50", "setting": "[14]", "result": "> 25", "unit": "µM"}, {"measurement": "TGI", "setting": "[14]", "result": "> 25", "unit": "µM"}, {"measurement": "GI50", "setting": "[15]", "result": 12.9, "unit": "µM"}, {"measurement": "TGI", "setting": "[15]", "result": "> 25", "unit": "µM"}, {"measurement": "GI50", "setting": "[16]", "result": "> 25", "unit": "µM"}, {"measurement": "TGI", "setting": "[16]", "result": "> 25", "unit": "µM"}, {"measurement": "GI50", "setting": "[17]", "result": "> 25", "unit": "µM"}, {"measurement": "TGI", "setting": "[17]", "result": "> 25", "unit": "µM"}, {"measurement": "GI50", "setting": "[18]", "result": 4.53, "unit": "µM"}, {"measurement": "TGI", "setting": "[18]", "result": "> 25", "unit": "µM"}, {"measurement": "GI50", "setting": "[19]", "result": "> 25", "unit": "µM"}, {"measurement": "TGI", "setting": "[19]", "result": "> 25", "unit": "µM"}, {"measurement": "GI50", "setting": "[20]", "result": "> 25", "unit": "µM"}, {"measurement": "TGI", "setting": "[20]", "result": "> 25", "unit": "µM"}, {"measurement": "GI50", "setting": "[21]", "result": "> 25", "unit": "µM"}, {"measurement": "TGI", "setting": "[21]", "result": "> 25", "unit": "µM"}, {"measurement": "GI50", "setting": "[22]", "result": "> 25", "unit": "µM"}, {"measurement": "TGI", "setting": "[22]", "result": "> 25", "unit": "µM"}, {"measurement": "GI50", "setting": "[23]", "result": "> 22.8", "unit": "µM"}, {"measurement": "TGI", "setting": "[23]", "result": "> 25", "unit": "µM"}, {"measurement": "GI50", "setting": "[24]", "result": "> 25", "unit": "µM"}, {"measurement": "TGI", "setting": "[24]", "result": "> 25", "unit": "µM"}, {"measurement": "GI50", "setting": "[25]", "result": 12, "unit": "µM"}, {"measurement": "TGI", "setting": "[25]", "result": "> 25", "unit": "µM"}, {"measurement": "GI50", "setting": "[26]", "result": "> 18.9", "unit": "µM"}, {"measurement": "TGI", "setting": "[26]", "result": "> 25", "unit": "µM"}, {"measurement": "GI50", "setting": "[27]", "result": "> 25", "unit": "µM"}, {"measurement": "TGI", "setting": "[27]", "result": "> 25", "unit": "µM"}, {"measurement": "GI50", "setting": "[28]", "result": "> 25", "unit": "µM"}, {"measurement": "TGI", "setting": "[28]", "result": "> 25", "unit": "µM"}, {"measurement": "GI50", "setting": "[29]", "result": "> 25", "unit": "µM"}, {"measurement": "TGI", "setting": "[29]", "result": "> 25", "unit": "µM"}]}]}
